Experiment [1] relates to mouse DCs. The class given is cell-based.
In experiment [2] the test system is mouse DCs. The experiment is classed as cell-based. The source holds these as a separate data set.
In experiment [3] the test system is CD8+ OT-I T cells in C57B1/6 Ly5.1 mice. To be noted: mouse, in vivo, sc.

Data on 2 substances can be found in patent US9061066B2 (priority 2010, dated 2015).

With methyl-cyclodextrin [MβCD], the “TNF-alpha and IL-12 secretion, comparison of cyclic glucan structures” value in the experiment on mouse DCs [1] is “none of the cytokines were secreted”. For the same substance, in the experiment on mouse DCs [2], the “surface expression of CD80, CD86, CD40 and MHC class II, comparison of cyclic glucan structures” value is on record as “failed to significantly activate DC”. As for Poly I/C, the “OT-I T cell proliferation in the draining lymph node” value in experiment [3] is “OT-I T cell proliferation”.
